This is an account of results in ChEMBL document CHEMBL1141872 (Bioorg Med Chem Lett, 2005).

Data set [1] addresses 3',5'-cyclic-AMP phosphodiesterase 4A (Homo sapiens, UniProt P27815). The data set is described as follows: Inhibitory activity against PDE4A.
Data set [2] addresses 3',5'-cyclic-AMP phosphodiesterase 4C (Homo sapiens, UniProt Q08493). Description: Inhibitory activity against PDE4C.
Data set [3] concerns the target 3',5'-cyclic-AMP phosphodiesterase 4B (Homo sapiens, UniProt Q07343). Description: Inhibitory activity against PDE4B.
In data set [4] the target is 3',5'-cyclic-AMP phosphodiesterase 4D (Homo sapiens, UniProt Q08499). The data set is described as follows: Inhibitory activity against PDE4D.
Chain of 3',5'-cyclic-AMP phosphodiesterase 4D (Q08499 whole entry): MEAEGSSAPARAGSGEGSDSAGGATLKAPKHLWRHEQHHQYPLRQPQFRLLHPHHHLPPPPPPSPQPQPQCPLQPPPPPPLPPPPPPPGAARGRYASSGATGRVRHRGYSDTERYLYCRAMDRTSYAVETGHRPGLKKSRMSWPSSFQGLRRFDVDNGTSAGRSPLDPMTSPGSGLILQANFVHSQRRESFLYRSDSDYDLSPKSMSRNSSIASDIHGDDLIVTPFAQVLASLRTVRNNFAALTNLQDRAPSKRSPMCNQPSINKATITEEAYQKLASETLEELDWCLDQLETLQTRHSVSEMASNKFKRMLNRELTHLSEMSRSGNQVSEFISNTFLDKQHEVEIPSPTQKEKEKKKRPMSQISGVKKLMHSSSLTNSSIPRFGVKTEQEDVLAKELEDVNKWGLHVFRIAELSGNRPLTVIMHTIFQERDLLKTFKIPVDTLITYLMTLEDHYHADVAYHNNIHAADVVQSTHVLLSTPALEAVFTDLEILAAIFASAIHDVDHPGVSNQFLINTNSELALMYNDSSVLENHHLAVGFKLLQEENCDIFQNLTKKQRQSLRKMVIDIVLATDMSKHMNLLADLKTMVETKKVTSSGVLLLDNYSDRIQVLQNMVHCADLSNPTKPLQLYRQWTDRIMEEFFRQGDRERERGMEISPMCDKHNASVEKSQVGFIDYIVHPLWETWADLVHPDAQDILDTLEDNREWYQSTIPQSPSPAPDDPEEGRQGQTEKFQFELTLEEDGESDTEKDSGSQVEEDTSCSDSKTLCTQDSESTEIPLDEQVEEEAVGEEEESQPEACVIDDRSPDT
Data set [5] has as its target T1, Phosphodiesterase 4 (Homo sapiens, UniProt P27815+Q08499+Q07343+Q08493). The data set is described as follows: Inhibition of LPS-induced TNFalpha production in human whole blood. Type of data set: functional, tissue-based.
Data set [6] is described as follows: Emetic threshold as plasma concentration in ferrets after 1.0 mg/kg oral dose. Type of data set: ADME, organism-based, Mustela putorius furo. More on the design: dose 1 mg/kg, route oral. The following applies: ferret, read-out: Emesis_Cmax.
Data set [7] deals with Cavia porcellus. The data set is described as follows: Inhibition of ovalbumin-induced bronchoconstriction in guinea pig at 0.3 mg/kg, ip. Format: functional. Particulars: route intraperitoneal.
Data set [8] in a line: Emetic threshold as plasma concentration in squirrel monkeys after 3 mg/kg oral dose. Format: ADME, organism-based. More on the design: dose 3 mg/kg, route oral. Particulars: saimiri, read-out: Emesis_Cmax.
Data set [9] has as its system Cavia porcellus. Description: Inhibition of ovalbumin-induced bronchoconstriction in guinea pig at 0.1 mg/kg, ip. Format: functional. Particulars: route intraperitoneal.
The nature of data set [10]: Emetic threshold as plasma concentration in squirrel monkeys after 10 mg/kg oral dose. Type of data set: ADME, organism-based. More on the design: dose 10 mg/kg, route oral. Particulars: saimiri, read-out: Emesis_Cmax.
Data set [11] relates to Cavia porcellus. Description: Inhibition of ovalbumin-induced bronchoconstriction in guinea pig at 1 mg/kg, ip. Particulars: route intraperitoneal. Type of data set: functional.
In data set [12] the test system is Mustela putorius furo. Description: Emetic threshold as plasma concentration in ferrets after 10 mg/kg oral dose. The following applies: ferret, in vivo. More on the design: dose 10 mg/kg, route oral. Type of data set: ADME, organism-based.
Data set [13] concerns the target T1, Phosphodiesterase 4. The data set is described as follows: Inhibition of LPS-induced TNFalpha production in squirrel monkey whole blood. Format: functional, tissue-based, Saimiri sciureus. The following applies: target entry is the homologue from another species.
Data set [14] relates to Ovis aries. Description: Inhibition of early-phase antigen induced bronchoconstriction in Ascaris sensitive sheep at 0.5 mg/kg/day, iv. Format: functional.
Data set [15] deals with Ovis aries. Description: Inhibition of late-phase antigen induced bronchoconstriction in Ascaris sensitive sheep at 0.5 mg/kg/day, iv. Type of data set: functional.
Data set [16] is described as follows: Emetic threshold as plasma concentration in squirrel monkeys after 0.5 mg/kg oral dose. Type of data set: ADME, organism-based. Particulars: saimiri, read-out: Emesis_Cmax. More on the design: dose 0.5 mg/kg, route oral.
Data set [17] deals with Cavia porcellus. Description: Inhibition of ovalbumin-induced bronchoconstriction in guinea pig at 0.01 mg/kg, ip. The following applies: route intraperitoneal. Type of data set: functional.
The test system of data set [18] is Cavia porcellus. Description: Inhibition of ovalbumin-induced bronchoconstriction in guinea pig at 0.03 mg/kg, ip. Format: functional. Particulars: route intraperitoneal.
Data set [19] can be described thus: Oral bioavailability in rat at 20 mg/kg, po. Format: ADME, organism-based. Particulars: in vivo.
A short description of data set [20]: Tmax in rat at 20 mg/kg, po. Type of data set: ADME, organism-based. The following applies: in vivo. More on the design: dose 20 mg/kg, route oral.
Data set [21] is described as follows: Cmax in rat at 20 mg/kg, po. Type of data set: ADME, organism-based. The following applies: in vivo. More on the design: dose 20 mg/kg, route oral.
The nature of data set [22]: Emetic threshold as plasma concentration in ferrets after 30 mg/kg oral dose. Format: ADME, organism-based, Mustela putorius furo. More on the design: dose 30 mg/kg, route oral. The following applies: ferret, read-out: Emesis_Cmax.

Chain of 3',5'-cyclic-AMP phosphodiesterase 4A (P27815 whole entry): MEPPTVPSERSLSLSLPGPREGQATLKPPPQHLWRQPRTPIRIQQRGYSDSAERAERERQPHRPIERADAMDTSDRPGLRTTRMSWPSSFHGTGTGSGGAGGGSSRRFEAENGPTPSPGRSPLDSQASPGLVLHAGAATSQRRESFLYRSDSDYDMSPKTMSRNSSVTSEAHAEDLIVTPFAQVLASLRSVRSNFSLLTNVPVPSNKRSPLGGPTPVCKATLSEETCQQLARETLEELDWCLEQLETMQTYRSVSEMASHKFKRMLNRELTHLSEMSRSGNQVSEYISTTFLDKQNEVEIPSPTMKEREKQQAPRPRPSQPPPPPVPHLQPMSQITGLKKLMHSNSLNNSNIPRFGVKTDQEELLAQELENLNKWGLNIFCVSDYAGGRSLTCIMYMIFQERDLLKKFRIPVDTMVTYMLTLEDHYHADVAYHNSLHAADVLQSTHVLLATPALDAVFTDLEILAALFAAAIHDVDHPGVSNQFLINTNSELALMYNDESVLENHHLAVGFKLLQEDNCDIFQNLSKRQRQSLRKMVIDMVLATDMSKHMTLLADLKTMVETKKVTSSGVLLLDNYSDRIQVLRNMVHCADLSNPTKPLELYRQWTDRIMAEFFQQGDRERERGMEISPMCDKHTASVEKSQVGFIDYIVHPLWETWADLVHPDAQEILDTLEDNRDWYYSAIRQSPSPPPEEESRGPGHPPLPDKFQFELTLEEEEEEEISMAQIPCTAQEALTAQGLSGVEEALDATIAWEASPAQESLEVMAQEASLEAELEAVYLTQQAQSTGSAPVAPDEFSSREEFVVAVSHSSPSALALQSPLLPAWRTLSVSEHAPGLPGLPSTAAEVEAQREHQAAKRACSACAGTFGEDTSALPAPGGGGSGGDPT
Chain of 3',5'-cyclic-AMP phosphodiesterase 4C (Q08493 whole entry): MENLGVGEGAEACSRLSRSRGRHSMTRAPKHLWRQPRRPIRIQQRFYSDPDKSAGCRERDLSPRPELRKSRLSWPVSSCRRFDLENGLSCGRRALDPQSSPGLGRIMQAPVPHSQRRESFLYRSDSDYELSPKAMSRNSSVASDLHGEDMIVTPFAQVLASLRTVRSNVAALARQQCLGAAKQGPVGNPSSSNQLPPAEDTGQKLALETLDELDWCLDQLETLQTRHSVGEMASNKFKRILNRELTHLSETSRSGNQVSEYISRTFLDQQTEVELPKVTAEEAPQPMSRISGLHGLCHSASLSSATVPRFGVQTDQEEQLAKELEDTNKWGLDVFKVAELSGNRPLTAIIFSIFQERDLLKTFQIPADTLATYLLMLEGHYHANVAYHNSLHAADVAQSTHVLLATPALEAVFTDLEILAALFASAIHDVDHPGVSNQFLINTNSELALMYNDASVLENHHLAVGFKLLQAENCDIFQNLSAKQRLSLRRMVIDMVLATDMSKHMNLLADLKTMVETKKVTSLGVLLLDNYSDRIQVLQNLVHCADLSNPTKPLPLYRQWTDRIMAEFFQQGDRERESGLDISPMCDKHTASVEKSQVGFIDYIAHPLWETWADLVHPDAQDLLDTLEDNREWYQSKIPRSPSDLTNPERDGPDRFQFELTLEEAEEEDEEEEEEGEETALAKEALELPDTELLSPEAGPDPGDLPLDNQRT
Chain of 3',5'-cyclic-AMP phosphodiesterase 4B (Q07343 whole entry): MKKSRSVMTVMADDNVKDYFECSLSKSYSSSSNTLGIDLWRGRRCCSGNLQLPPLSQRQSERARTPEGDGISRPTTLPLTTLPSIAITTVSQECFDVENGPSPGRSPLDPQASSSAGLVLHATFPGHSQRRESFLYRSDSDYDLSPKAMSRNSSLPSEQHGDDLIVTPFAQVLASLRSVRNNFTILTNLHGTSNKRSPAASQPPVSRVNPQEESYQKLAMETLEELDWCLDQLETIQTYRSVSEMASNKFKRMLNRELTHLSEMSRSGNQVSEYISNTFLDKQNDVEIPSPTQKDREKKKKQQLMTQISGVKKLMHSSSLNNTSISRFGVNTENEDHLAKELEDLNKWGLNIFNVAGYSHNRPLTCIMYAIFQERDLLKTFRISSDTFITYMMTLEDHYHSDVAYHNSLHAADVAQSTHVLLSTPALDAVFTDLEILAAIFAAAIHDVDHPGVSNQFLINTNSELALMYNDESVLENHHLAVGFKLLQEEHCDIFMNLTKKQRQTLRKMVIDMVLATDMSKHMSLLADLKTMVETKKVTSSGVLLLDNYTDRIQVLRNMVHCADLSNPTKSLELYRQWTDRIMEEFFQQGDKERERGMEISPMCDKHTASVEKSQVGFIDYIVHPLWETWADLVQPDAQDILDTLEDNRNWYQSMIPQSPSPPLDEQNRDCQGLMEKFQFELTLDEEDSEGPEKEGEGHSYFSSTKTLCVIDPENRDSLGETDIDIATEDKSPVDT

With `CC(C)c1cc(-c2cccc(/C=C(\c3ccc(S(C)(=O)=O)cc3)c3nccs3)c2)c2ncccc2c1`, the IC50 in data set [1] worked out at 0.47 nM; in data set [2], 0.7 nM; in [3], 0.3 nM; in data set [4] it was 0.19 nM; in data set [5] it was 120 nM.

For `CC(C)c1cc(-c2cccc(/C=C(/C(=O)O)c3ccc(S(C)(=O)=O)cc3)c2)c2ncccc2c1`, the IC50 in data set [1] is 0.3 nM; in data set [2], 3.8 nM; in data set [3], 0.3 nM; in data set [4], 0.5 nM; in data set [5] it was 1600 nM.

Regarding `Cc1ccc(/C(=C/c2cccc(-c3cc(C(C)C)cc4cccnc34)c2)c2ccc(S(C)(=O)=O)cc2)nc1`, the IC50 turned out to be 0.2 nM in data set [1]; 0.4 nM in [2]; 0.2 nM in data set [3]; 0.2 nM in data set [4]; 120 nM in data set [5].

As to `Cc1noc(/C(=C/c2cccc(-c3cc(C(C)C)cc4cccnc34)c2)c2ccccn2)n1`, the IC50 came to 0.5 nM in data set [1]; 5.7 nM in data set [2]; 0.3 nM in [3]; 0.6 nM in data set [4]; 1200 nM in data set [5].

`COc1cccc(-c2cc(Cc3ccncc3)cc3cccnc23)c1`: the Cmax in data set [6] stood at 200 nM. For the same compound, the IC50 in data set [1] was found to be 1.5 nM; in [2], 3.3 nM; in [3], 2.3 nM; in [4], 2.5 nM; in data set [5], 8300 nM. This compound came in with an inhibition in vivo at 0.3 mg/kg in [7] of 70%.

For `CC(C)c1cc(-c2cccc(C(Cc3cc[n+]([O-])cc3)c3ccc(Cl)cc3)c2)c2ncccc2c1` (stereo not given), the 50% inhibitory concentration (IC50) was determined as 52 nM in data set [1]; 68 nM in [2]; 19 nM in [3]; 45 nM in [4]; 11000 nM in data set [5].

With `CC(C)NC(=O)/C(=C/c1cccc(-c2cc(C(C)(C)S(C)(=O)=O)cc3cccnc23)c1)c1ccc(S(C)(=O)=O)cc1`, in data set [8], the Cmax is over 2500 nM. For the same compound, the IC50 was 0.9 nM in data set [1]; 14 nM in data set [2]; 0.5 nM in [3]; 2.3 nM in [4]; 930 nM in data set [5]. Further, testing at 0.1 mg/kg in [9] gave an inhibition in vivo of 59%.

With `CC(C)c1cc(-c2cccc(CC(c3ccncc3)C(C)(C)O)c2)c2ncccc2c1` (stereo not given), the Cmax in [10] amounted to 11900 nM. Also, the IC50 in data set [1] worked out at 3.4 nM; in [2], 106 nM; in [3], 1.8 nM; in data set [4], 4.4 nM; in data set [5] it was 12000 nM; in data set [13] it was 450 nM. In [11], this compound yielded an inhibition in vivo at 1 mg/kg of 47%. The Emesis_Cmax in data set [12] was 2.9 µM.

Consider `CC(C)c1cc(-c2cccc(/C=C(/c3ccc(C(C)(C)O)cc3)c3ccc(S(C)(=O)=O)cc3)c2)c2ncccc2c1`, for which the IC50 in data set [1] was found to be 0.4 nM; in [2], 0.5 nM; in [3] it was 0.3 nM; in [4] it was 0.5 nM; in [5], 610 nM.

Turning to `CC(c1cc(-c2cccc(/C=C(\c3ccc(S(C)(=O)=O)cc3)c3ncc(C(C)(C)O)s3)c2)c2ncccc2c1)S(C)(=O)=O` (stereo not given), the IC50 in [1] was 1.7 nM; in data set [2] it was 11 nM; in data set [3], 1.1 nM; in data set [4] it was 2 nM; in data set [5], 210 nM.

As for `CC(C)NC(=O)/C(=C\c1cccc(-c2cc(C(C)(C)C#N)cc3cccnc23)c1)c1ccc(S(C)(=O)=O)cc1`, the IC50 in data set [1] stood at 1 nM; in [2], 11.4 nM; in [3], 0.4 nM; in data set [4], 0.5 nM; in data set [5], 210 nM.

With `[O-][n+]1cccc(C[C@@H](c2ccc(OC(F)F)c(OC3CC3)c2)c2cnc(C(O)(C(F)(F)F)C(F)(F)F)s2)c1`, the IC50 in [1] came out at 0.4 nM; in data set [2] it was 1 nM; in data set [3] it was 0.4 nM; in data set [4], 0.4 nM; in data set [5], 90 nM; in [13] it was 5 nM. Moreover, the inhibition in vivo at 0.5 mg/kg/day in [14] turned out to be 68%; in [15] it was 92%. Also, the Cmax in data set [16] was 1600 nM. Also, in data set [17], the inhibition in vivo at 0.01 mg/kg was found to be 62%.

With `O=S(=O)(Nc1cccc(-c2cc(Cc3ccncc3)cc3cccnc23)c1)c1ccccc1`, the IC50 is 5.6 nM in [1]; 11.9 nM in [2]; 3 nM in [3]; 2 nM in data set [4]; 7800 nM in data set [5]. In data set [11], this compound showed an inhibition in vivo at 1 mg/kg of 46%. Further, the Emesis_Cmax in data set [12] is over 2 µM.

As for `CC(C)NC(=O)/C(=C/c1cccc(-c2cc(C(C)(C)C#N)cc3cccnc23)c1)c1ccc(S(C)(=O)=O)cc1`, the results for the Cmax in [10] and in data set [21] were 1900 nM and 4100 nM, respectively. The IC50 was found to be 0.8 nM in [1]; 6.8 nM in data set [2]; 0.3 nM in data set [3]; 0.7 nM in data set [4]; 70 nM in data set [5]; 15 nM in data set [13]. In addition, the inhibition in vivo at 0.03 mg/kg in data set [18] came to 75%. The bioavailability in [19] was 80%. Further, in data set [20], the Tmax was 6 h.

For `CC(C)NC(=O)/C(=C/c1cccc(-c2cc(C(C)C)cc3cccnc23)c1)c1ccc(S(C)(=O)=O)cc1`, the IC50 in data set [1] was 0.3 nM; in data set [2] it was 2.9 nM; in data set [3] it was 0.3 nM; in data set [4], 0.6 nM; in data set [5], 140 nM.

As for `Cc1noc(/C(=C/c2cccc(-c3cc(C(C)(C)S(C)(=O)=O)cc4cccnc34)c2)c2ccc(S(C)(=O)=O)cc2)n1`, the figures for the Cmax in data set [10] and in [21] were 3800 nM and 5100 nM, respectively. Moreover, the inhibition in vivo at 0.5 mg/kg/day in [14] was 73%; in data set [15] it was 95%. For the same compound, the bioavailability in data set [19] came out at 100%. Moreover, in data set [20], the Tmax worked out at 6 h.

In the case of `Cc1noc(/C(=C/c2cccc(-c3cc(C(C)C)cc4cccnc34)c2)c2ccc(S(C)(=O)=O)cc2)n1`, the IC50 in data set [1] is 0.16 nM; in [2], 1.2 nM; in data set [3], 0.07 nM; in data set [4] it was 0.2 nM; in [5] it was 260 nM. The compound also showed a bioavailability in data set [19] of 11%. In addition, in data set [20], the Tmax came out at 0.5 h. In addition, the Cmax in data set [21] is 500 nM.

As to `CC(C)c1cc(-c2cccc(C(Cc3ccncc3)c3ccc(Cl)cc3)c2)c2ncccc2c1` (stereo not given), the IC50 in [1] was determined as 11.8 nM; in data set [2], 22 nM; in data set [3] it was 6.4 nM; in data set [4] it was 38 nM; in [5], 31000 nM.

Regarding `COc1ccc([C@H](Cc2ccncc2)c2ccccc2)cc1OC1CCCC1` [CDP840], the values for the Cmax in data set [10] and in [22] were 4000 nM and 2500 nM, respectively. For the same compound, the IC50 in [1] was determined as 2.1 nM; in data set [2], 4.5 nM; in [3], 1.4 nM; in data set [5] it was 14000 nM; in [13] it was 600 nM. Besides, in [11], testing at 1 mg/kg gave an inhibition in vivo of 54%. In addition, the inhibition in vivo at 0.5 mg/kg/day was 39% in data set [14] and 88% in data set [15].

In general, IC50 refers to the concentration that inhibits the measured activity by half. The inhibition in vivo is the percentage by which the read-out fell short of the control. The bioavailability is the share of a dose that reaches the circulation, judged against a reference dose that is usually intravenous. Usually Tmax stands for the time at which the peak concentration occurs.
